Entries after “also recorded” stand apart in the source; their conditions may differ.
Tests used:
[1] = Kinetic of chemical hydrolysis in 0.02 M phosphate buffer, HPLC; type: physicochemical; conditions: for half-life: phosphate buffer
Procedure: For compounds 1a and 1d, the chromatographic analyses were performed using a 1260 Infinity II HPLC (Agilent, Santa Clara, CA, USA) consisting of a 1260 Infinity II Quaternary Pump (model G7111A), 1260 Infinity II auto-sampler (model G7129A), a 1260 Infinity II Multicolumn Thermostat (model G7116A), and a 1260 Infinity II Diode Array Detector (model G7115A) equipped with Poroshell 120 EC-C18 (150 × 4.6 mm i.d., particle size 4 µm, Agilent), operating at 20 °C.
Samples were run using a mixture of water and acetonitrile, enriched with trifluoroacetic acid (0.1% v/v) as mobile phase, in a gradient elution mode starting from 90% to 10% of water over 15 min (Table 2) at a flow rate of 0.8 mL/min. Stock solutions (10 mg/mL) were prepared by dissolving the exact amount of each compound in DMSO and acetonitrile (1:1), and then diluted with acetonitrile to reach 250 µg/mL concentration and analyzed by HPLC, setting the UV-detector at 254 nm.
CAPE, 1a and 1d stock solutions (10 mg/mL) were diluted in prewarmed (37 ± 0.5 °C) PBS solution to reach 10^−4 M concentration (50 mL); these conditions were used to initiate the reaction. At established time points, samples of 250 µL were withdrawn, filtered, and analyzed by HPLC. The pseudo-first-order rate constant (kobs) for the compound hydrolysis was calculated from the slops of the linear plots of ln (% residual compound) against time. The samples were analyzed in triplicate.

[2] = system: SAOS-2 osteoblastic cell lines; conditions: cited from earlier work
[3] = system: calvarial-derived cells; parameters: method as in Jun et al. 54; conditions: long-term cultures of calvarial-derived cells; ref Jun et al. 54; cited from earlier work
[4] = system: osteoblastic cells; parameters: method as in PMID 17979115; conditions: cited from earlier work
[5] = system: DPSCs; experiment: Crystal violet cell viability assay of DPSCs in osteogenic medium; type: cell-based; conditions: 0.5, 1 and 5 µM; 3, 7, 14, 21 and 28 days; vs Control (diff)
Procedure: Dental pulp stem cells (DPSCs) were cultured in α-MEM medium (Merck, Darmstadt, Germany), supplemented with 10% fetal bovine serum (FBS) and 1% penicillin/streptomycin (Euroclone S.p.A., Milan, Italy). The cells were purchased from Lonza (Lonza Group Ltd., Basel, Switzerland) and kept at 37 °C and 5% CO2.
Cell viability (relative numbers compared to control cells) was determined by a crystal violet assay. After reaching the growth exponential phase, DPSCs were seeded into 48-well culture plates at a density of 8 × 10^3 cells per well. After 24 h, different concentrations (ranging from 0 to 5 µM) of each compound (1a, 1d, 2a and 2d) were added to DPSCs in an osteogenic medium, whereas cells cultured in the same osteogenic medium without CAPE derivatives served as control. After 3, 7, 14, 21, and 28 days, the medium was removed from each well, a wash with PBS was performed and cell were then fixed with glutaraldehyde (1%), and stained at room temperature with a crystal violet solution (0.02%) (both from Thermo Fisher Scientific, Waltham, MA, USA). After 30 min, the cells were rinsed with tap water, and bound crystal violet was dissolved in 70% ethanol. Then, absorbance was read at 600 nm with a spectrophotometer (Multiskan GO, Thermo Fisher Scientific, Waltham, MA, USA). The optical density readings were used to indicate cell survival relative to untreated cultures.

[6] = system: DPSCs; experiment: Alizarin Red S staining, extracellular mineralized matrix deposition; type: cell-based; conditions: for Extracellular mineralized matrix deposition compared to non-treated cells (Alizarin Red): 28 days in differentiation medium, 0.5, 1 and 5 µM; for Concentrations at which matrix deposition / mineralization is enhanced: 28 days, tested 0.5, 1 and 5 µM
Procedure: (§1) DPSCs were seeded at a density of 3.5 × 10^4 in 12-well plates in the presence of differentiation medium, which consists of complete α-MEM supplemented with 10 nM dexamethasone, 10 mM β-glycerophosphate and 0.2 mM ascorbic acid phosphate (all purchased from Sigma-Aldrich, St. Louis, MO, USA). At the established experimental times (3, 7, 14, 21 and 28 days), cells and/or supernatants were collected for further analyses.
Alizarin red staining was performed after 28 days, by washing twice with PBS with Ca^2+/Mg^2+ each well, and fixing the cell monolayer of DPSCs in paraformaldehyde 4% for 15 min at room temperature. After washing twice with deionized water, 40 mM Alizarin Red S solution (Sigma-Aldrich) was added to each well and left at room temperature for 20 min on a shaker, followed by several rinses with deionized water in order to eliminate dye excess. For the spectrophotometric evaluation of calcium level deposits, 800 µL/well of 10% acetic acid was added to each well and then incubated for 30 min in agitation. Wells were then scraped and the sample containing calcium deposits was collected and vortexed. After the addition of hot mineral oil (Sigma-Aldrich), the samples were incubated on ice for 5 min and then centrifuged at 20,000× g for 15 min. After the removal of the supernatant, 10% ammonium hydroxide was added, and the optical density of 150 µL aliquots of this solution was measured at 405 nm through a microplate reader (Multiskan GO, Thermo Fisher Scientific).

[7] = system: Alkaline phosphatase (ALP) activity in DPSCs; experiment: Alkaline phosphatase (ALP) activity in supernatants of differentiating DPSCs; type: cell-based; conditions: 0.5 µM; 3, 7, 14, 21 and 28 days; vs control (diff)
Procedure: as §1
A colorimetric Alkaline Phosphate Assay Kit (Abcam, Cambridge, UK) was used following manufacturer’s instructions. Briefly, 50 µL of 5 mM p-nitrophenyl phosphate (pNPP) was added to 80 µL of each supernatant and then incubated for 1 h at room temperature in the dark. After the addition of 20 µL of stopping solution, the absorbance was read at 405 nm wavelength through a microplate reader (Multiskan GO, Thermo Fisher Scientific). The ALP activity (mU/mL/min) was calculated in accordance with the manufacturer’s protocol.

[8] = system: BMP2; experiment: Real-time RT-PCR, BMP2 gene expression in DPSCs; type: cell-based; conditions: 0.5 µM, vs Control (diff)
Procedure: (§2) After 7, 14, and 21 days of treatment, DPSCs were collected and RNA was extracted by PureLink® RNA Mini Kit (Life Technologies, Carlsbad, CA, USA). An amount of 300 µL of lysis buffer supplied with 1% of 2-mercaptoethanol and then 300 µL of 70% v/v ethanol were added to each cell pellet, and samples were transferred into the Spin Cartridge for RNA extraction and purification. After washing with Wash Buffer supplied by the kit, samples were incubated for 15 min with 80 µL of DNase mixture (On-column PureLink® DNase Treatment, Thermo Fisher Scientific) to remove contaminating DNA. RNA extracted from each sample was eluted in 30 µL of Nuclease-Free Water. RNA concentration (ng/µL) was determined through Qubit® RNA BR Assay Kits (Thermo Fisher Scientifc).
(§3) A total of 1 µg of RNA was reverse-transcribed by high-capacity cDNA Reverse Transcription Kit (Life Technologies). Samples were incubated in a thermal cycler at 25 °C for 10 min, 37 °C for 2 h, and 85 °C for 5 min.
(§4) For all the examined mRNAs, gene expression was determined by quantitative PCR using PowerUpTM SYBRTM Green Master Mix (2×) (Thermo Fisher Scientific). Each amplification reaction was performed in a MicroAmp® Optical 96-well Reaction Plate (Life Technologies, Carlsbad, CA, USA) in a reaction volume of 20 µL made up of 10 µL of SYBR Green, 1 µM of each primer (stock solution 100 µM), 10 ng of cDNA and Nuclease-Free Water.
(§5) The run consisted of 50 °C for 2 min, 95 °C for 2 min, 40 cycles of amplification at 95 °C for 15 s and 60 °C for 1 min in QuantStudio 3 (Thermo Fisher Scientific). QuantStudio™ Design & Analysis Software v1.5.1 (Thermo Fisher Scientific) was used to elaborate gene expression data. The authenticity of the PCR products was verified by melt curve analysis. Each gene expression value was normalized to the expression level of 18S. The fold changes of the investigated genes were expressed in relation to the level of 18S at different time points. The relative abundance of mRNA (relative quantification) was quantified using the comparative ^2−∆∆Ct method.

[9] = system: Osterix (SP7); experiment: Real-time RT-PCR, Osterix (SP7) gene expression in DPSCs; type: cell-based; conditions: 0.5 µM, vs control sample
Procedure: as §2, §3, §4, §5

[10] = system: Collagen type I; experiment: ELISA of collagen type I release in DPSC supernatants; type: cell-based, human; conditions: 0.5 µM; 7, 14 and 21 days; normalized on crystal violet values
Procedure: as §1
The release of collagen type I in cell supernatants was measured by a Human Collagen Type 1 ELISA kit (Cosmo Bio Co., Ltd., Tokyo, Japan; cat. no. ACE-EC1-E105-EX). The absorbance was measured at 450 nm spectrophotometrically (Multiskan GO, Thermo Fisher Scientific). The concentration of collagen type I (µg/mL) was calculated using a standard curve generated with specific standards provided by the manufacturers and normalized with the crystal violet values.

[11] = Thermal stability of the solid compounds, 1H-NMR before and after heating; type: physicochemical; conditions: 20 min at 100 °C, water bath, solid compound
Procedure: To ensure the suitability of compounds 1a and 1d for adsorption onto biomaterials, their thermal stability was confirmed. Initially, ^1H-NMR spectra were acquired for the compounds. Subsequently, they were subjected to heating for 20 min at 100 °C by immersing glass tubes containing the solid compounds in a water bath. Following the heating process, their ^1H-NMR spectra were reacquired and compared with the initial spectra to assess any alterations.

[12] = parameters: method as in PMID 39054610; conditions: 30 min at 50 °C; cited from earlier work

Row | SMILES | Kobs ([1]; pH 4.5, 37 °C) | t1/2 ([1]; pH 4.5, 37 °C) | Kobs ([1]; pH 7.4) | half-life ([1]; pH 4.5, pH 4.5, 37 °C) [h] | half-life ([1]; pH 7.4, pH 7.4) [h] | Cell viability / toxicity towards DPSCs [5] | Extracellular mineralized matrix deposition compared to non-treated cells (Alizarin Red) [6] | Concentrations at which matrix deposition / mineralization is enhanced [6] | ALP activity compared to non-treated cells [7] | BMP2 relative gene expression ([8]; 21 days) | Osx (SP7) relative gene expression ([9]; 21 days) [fold] | Collagen type I release with respect to the control sample [10] | Thermal stability (identical 1H NMR spectra before and after heat) [11] | Thermal stability (consistent 1H NMR spectra before and after heat) [12] | other results
1 | O=C(/C=C/c1ccc(O)c(O)c1)OCCc1ccccc1 [CAPE, caffeic acid phenethyl ester] | 0.006 (±0.0009) h^−1 | 117.5 (±2.10) h | 0.018 (±0.004) h^−1 | 117 | 38.5 |  |  |  |  |  |  |  |  |  | Cytotoxicity at similar concentrations (0.5-5 µM range) ([2]; SAOS-2 osteoblastic cell lines): does not exhibit cytotoxicity; Concentrations that reduce cell viability [2]: above 10 µM; Concentrations at which toxicity is reported [3]: above 17.6 µM; ECM mineralization ([4]; CAPE at 10 μM): reduction in ECM mineralization; ECM mineralization compared to the control group ([4]; CAPE at concentrations up to 100 nM): greater mineralization
2 | O=C(/C=C/c1ccccc1)Oc1cccc2cccnc12 [compound 1a] | 0.009 (±0.0008) h^−1 |  |  | 80.6 |  | no toxicity | more effective in enhancing matrix deposition | across all tested concentrations | significantly higher than non-treated cells at all time points | 2.2 fold | 2.26 | higher quantity of Collagen type I | stable | stable | BMP2 relative gene expression ([8]; 14 days): 1.2 fold; Osx (SP7) relative gene expression ([9]; 14 days): 4.8 fold; t1/2 ([1]; pH 7.4): no degradation; also recorded: stable
3 | O=C(/C=C/c1ccc(O)c(O)c1)Oc1cccc2cccnc12 [compound 1d] |  | no degradation; also recorded: stable | 0.033 (±0.002) h^−1 |  | 21.2 | no toxicity | more effective in enhancing matrix deposition | only enhance mineralization at the lowest concentration | significantly higher than non-treated cells at all time points |  | 2.19 | higher quantity of Collagen type I | stable | stable | BMP2 relative gene expression ([8]; 7 days): significantly increased BMP2 expression
4 | O=C(/C=C/c1ccccc1)Nc1cccc2cccnc12 [compound 2a] |  |  |  |  |  | no toxicity | no significant changes |  |  |  |  |  |  |  | 
5 | O=C(/C=C/c1ccc(O)c(O)c1)Nc1cccc2cccnc12 [compound 2d] |  |  |  |  |  | no toxicity | more effective in enhancing matrix deposition | only enhance mineralization at the lowest concentration | significantly higher than non-treated cells at all time points | higher BMP2 expression only after 21 days |  |  |  |  | 
